Experimental data taken from ChEMBL document CHEMBL1201862, “PubChem BioAssay data set” (2004).
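Compound exposure: 48 hours, 5 concentrations, 96-well plates. Abbreviation: GI50, concentration required for 50% inhibition of growth.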 Activity calls are given as the source filed them. Rule as the data show it: active = GI50 up to about 1.1 µM and inactive = higher. Non-standard residues stand in square brackets, D forms with d. Residues, ends and D or L forms follow the SMILES beside them. ξ: configuration not given here. *: point of attachment. ξHyp = O=C(O)C1CC(O)CN1; Cbz = O=C(OCc1ccccc1)*

What was measured:
Assay in all cases: NCI anticancer screen, dose series, 48 h
OVCAR-8 = tested on: OVCAR-8
SNB-19 = tested on: SNB-19
EKVX = tested on: EKVX
HCT-116 = tested on: HCT-116
K562 = tested on: K562
SK-MEL-28 = tested on: SK-MEL-28
NCI-H23 = tested on: NCI-H23
SK-OV-3 = tested on: SK-OV-3
SK-MEL-5 = tested on: SK-MEL-5
LOX IMVI = tested on: LOX IMVI
HCT-15 = tested on: HCT-15
IGROV-1 = tested on: IGROV-1
OVCAR-5 = tested on: OVCAR-5
SW-620 = tested on: SW-620
U-251 = tested on: U-251
A498 = tested on: A498
COLO 205 = tested on: COLO 205
NCI-H226 = tested on: NCI-H226
HCC 2998 = tested on: HCC 2998
HOP-62 = tested on: HOP-62

SMILES	GI50 (OVCAR-8)	GI50 (SNB-19)	GI50 (EKVX)	GI50 (HCT-116)	GI50 (K562)	GI50 (SK-MEL-28)	GI50 (NCI-H23)	GI50 (SK-OV-3)	GI50 (SK-MEL-5)	GI50 (LOX IMVI)	GI50 (HCT-15) [µM]	GI50 (IGROV-1)	GI50 (OVCAR-5)	GI50 (SW-620)	GI50 (U-251)	GI50 (A498)	GI50 (COLO 205)	GI50 (NCI-H226)	GI50 (HCC 2998)	GI50 (HOP-62)
CCC(C)COC(=O)c1ccc(/N=C\c2ccc(/C=N/c3ccc(C(=O)OCC(C)CC)cc3)cc2)cc1 (centres undefined)	> 100 µM (inactive)	> 100 µM (inactive)	> 100 µM (inactive)	> 100 µM (inactive)	> 100 µM (inactive)	> 100 µM (inactive)	> 100 µM (inactive)	> 100 µM (inactive)	> 100 µM (inactive)	> 100 µM (inactive)	> 100	> 100 µM (inactive)	> 100 µM (inactive)	> 100 µM (inactive)	> 100 µM (inactive)	> 100 µM (inactive)	> 100 µM (inactive)	> 100 µM (inactive)	> 100 µM (inactive)	> 100 µM (inactive)
NC(=O)CNC(=O)C1CC(O)CN1C(=O)OCc1ccccc1 (centres undefined) (Cbz-[ξHyp]-Gly-NH2)	> 100 µM (inactive)	> 100 µM (inactive)	41.4 µM (inactive)	> 100 µM (inactive)	> 100 µM (inactive)	> 100 µM (inactive)	> 100 µM (inactive)	> 100 µM (inactive)	> 100 µM (inactive)	> 100 µM (inactive)	> 100	> 100 µM (inactive)	> 100 µM (inactive)	> 100 µM (inactive)	> 100 µM (inactive)	> 100 µM (inactive)	> 100 µM (inactive)	> 100 µM (inactive)	> 100 µM (inactive)	> 100 µM (inactive)
CC1=CC2c3cccc4[nH]cc(c34)CC2N(C)C1 (centres undefined)	> 100 µM (inactive)	> 100 µM (inactive)	> 100 µM (inactive)	> 100 µM (inactive)	32.7 µM (inactive)	> 100 µM (inactive)	> 100 µM (inactive)	> 100 µM (inactive)	> 76.9 µM (inactive)	70.8 µM (inactive)	> 100	> 100 µM (inactive)	> 100 µM (inactive)	> 100 µM (inactive)	> 100 µM (inactive)	> 76.6 µM (inactive)	55.6 µM (inactive)	> 100 µM (inactive)	25.5 µM (inactive)	15.8 µM (inactive)
CN(C)CCNC(=O)c1cccc2c1C(=O)c1ccccc1C2=O	29.4 µM (inactive)	28 µM (inactive)	63.8 µM (inactive)	25.1 µM (inactive)	19.1 µM (inactive)	45.3 µM (inactive)	22 µM (inactive)	58.9 µM (inactive)	20.5 µM (inactive)	25.6 µM (inactive)	30.7	26.4 µM (inactive)	61.5 µM (inactive)	28.9 µM (inactive)	31.7 µM (inactive)	> 100 µM (inactive)	16 µM (inactive)	> 94 µM (inactive)	39.1 µM (inactive)	> 31.6 µM (inactive)
O=C(O)CCSC(=S)Nc1cccc(F)c1	37.8 µM (inactive)	45.2 µM (inactive)	18.6 µM (inactive)	97.3 µM (inactive)	32.3 µM (inactive)	28 µM (inactive)	36.1 µM (inactive)	> 100 µM (inactive)	20 µM (inactive)	13.9 µM (inactive)	27	29.2 µM (inactive)	> 100 µM (inactive)	> 100 µM (inactive)	47.3 µM (inactive)	30.4 µM (inactive)	57.5 µM (inactive)	33.7 µM (inactive)	> 100 µM (inactive)	56.4 µM (inactive)
C/N=C1\S/C(=N\c2ccc(N(C)C)cc2)N1C	35.1 µM (inactive)	42.2 µM (inactive)	25 µM (inactive)	32.7 µM (inactive)	29.7 µM (inactive)	38.8 µM (inactive)	32.1 µM (inactive)	26.8 µM (inactive)	25.2 µM (inactive)	46 µM (inactive)	30.5	51.8 µM (inactive)	75.5 µM (inactive)	38.1 µM (inactive)	33.9 µM (inactive)	23 µM (inactive)	39.4 µM (inactive)	52.1 µM (inactive)	33.2 µM (inactive)	> 100 µM (inactive)
CCn1c(-c2ccccc2)cs/c1=N\C(P(=O)(O)O)P(=O)(O)O	> 100 µM (inactive)	> 100 µM (inactive)	> 100 µM (inactive)	> 100 µM (inactive)	> 100 µM (inactive)	> 100 µM (inactive)	> 100 µM (inactive)	> 100 µM (inactive)	> 100 µM (inactive)	> 100 µM (inactive)	> 100	> 100 µM (inactive)	> 100 µM (inactive)	> 100 µM (inactive)	> 100 µM (inactive)	> 100 µM (inactive)	> 100 µM (inactive)	> 100 µM (inactive)	> 100 µM (inactive)	> 100 µM (inactive)
CCc1cc2c(cc1CCCC(=O)O)CC1(Cc3ccc(C(=O)O)cc3C1)C2 (centres undefined)	> 100 µM (inactive)	> 100 µM (inactive)	> 100 µM (inactive)	> 100 µM (inactive)	> 100 µM (inactive)	> 100 µM (inactive)	> 100 µM (inactive)	> 100 µM (inactive)	> 100 µM (inactive)	> 100 µM (inactive)	> 100	> 100 µM (inactive)	> 100 µM (inactive)	> 100 µM (inactive)	> 100 µM (inactive)	> 100 µM (inactive)	> 100 µM (inactive)	> 100 µM (inactive)	> 100 µM (inactive)	> 100 µM (inactive)
COC1C(O)CC(OC2CC(Oc3cc4cc5c(c(O)c4c(O)c3C)C(=O)[C@@H](OC3CC(OC4CC(OC6CC(C)(O)C(OC(C)=O)C(C)O6)C(O)C(C)O4)C(O)C(C)O3)[C@H]([C@H](OC)C(=O)[C@@H](O)[C@@H](C)O)C5)OC(C)C2OC(C)=O)OC1C (some centres undefined) [CHROMOMYCIN]	< 0.01 µM (active)	0.00424 µM (active)	0.00532 µM (active)	0.00333 µM (active)	0.00566 µM (active)	0.00368 µM (active)	< 0.01 µM (active)	0.00673 µM (active)	< 0.01 µM (active)	0.00348 µM (active)	0.0138	0.0101 µM (active)	< 0.01 µM (active)	< 0.01 µM (active)	0.00344 µM (active)	0.0038 µM (active)	< 0.01 µM (active)	< 0.01 µM (active)	< 0.01 µM (active)	0.00355 µM (active)
COc1cccc(N2C(=O)C3c4[nH]c5ccc(C)cc5c4C4CCC(C(C)(C)C)CC4C3C2=O)c1 (centres undefined)	2.58 µM (inactive)	> 10 µM (inactive)	4.84 µM (inactive)	2.17 µM (inactive)	2.65 µM (inactive)	4.61 µM (inactive)	2.24 µM (inactive)	> 10 µM (inactive)	7.67 µM (inactive)	2.43 µM (inactive)	6.35	> 10 µM (inactive)	3.3 µM (inactive)	3.88 µM (inactive)	3.52 µM (inactive)	> 10 µM (inactive)	7.16 µM (inactive)	3.01 µM (inactive)	4.11 µM (inactive)	> 10 µM (inactive)
Cc1ccccc1OCC(COC(=O)Nc1ccccc1)OC(=O)Nc1ccccc1 (centres undefined)	26.5 µM (inactive)	22.1 µM (inactive)	> 100 µM (inactive)	15.8 µM (inactive)	4.05 µM (inactive)	> 100 µM (inactive)	54 µM (inactive)	59.7 µM (inactive)	> 100 µM (inactive)	15.1 µM (inactive)	> 100	> 100 µM (inactive)	> 100 µM (inactive)	52.8 µM (inactive)	38 µM (inactive)	61.2 µM (inactive)	72.3 µM (inactive)	25.8 µM (inactive)	83.8 µM (inactive)	31.9 µM (inactive)
Cc1c2c(cc3c1[nH]c1ccccc13)C(c1ccc(F)cc1)=NCC2	1.81 µM (inactive)	1.41 µM (inactive)	2.07 µM (inactive)	0.752 µM (active)	0.379 µM (active)	1.48 µM (inactive)	1.15 µM (inactive)	1.37 µM (inactive)	1.72 µM (inactive)	0.509 µM (active)	0.904	0.855 µM (active)	1.74 µM (inactive)	0.665 µM (active)	1.43 µM (inactive)	1.37 µM (inactive)	0.679 µM (active)	1.43 µM (inactive)	1.04 µM (active)	2.05 µM (inactive)
COc1cc([C@@H]2c3cc4c(c(O[C@@H]5O[C@H]6CO[C@@H](C)O[C@H]6[C@H](O)[C@@H]5O)c3C[C@H]3COC(=O)[C@@H]32)OCO4)cc(OC)c1O	6.64 µM (inactive)	23.7 µM (inactive)	5.55 µM (inactive)	6.78 µM (inactive)	4.53 µM (inactive)	5.81 µM (inactive)	15.1 µM (inactive)	19.6 µM (inactive)	5.08 µM (inactive)	4.73 µM (inactive)	14.6	8.61 µM (inactive)	97.1 µM (inactive)	8.3 µM (inactive)	8.17 µM (inactive)	4.11 µM (inactive)	38.8 µM (inactive)	3.75 µM (inactive)	26.9 µM (inactive)	27.2 µM (inactive)
Cc1cc(C)c(S(=O)(=O)N(CCCN)OCCON(CCCN)S(=O)(=O)c2c(C)cc(C)cc2C)c(C)c1	12.6 µM (inactive)	2.08 µM (inactive)	5.24 µM (inactive)	2.24 µM (inactive)	2.96 µM (inactive)	5.26 µM (inactive)	2.59 µM (inactive)	5.01 µM (inactive)	8.2 µM (inactive)	2.44 µM (inactive)	25.7	1.97 µM (inactive)	2.24 µM (inactive)	> 22.2 µM (inactive)		19.5 µM (inactive)	2.66 µM (inactive)	4.44 µM (inactive)	1.9 µM (inactive)	3.01 µM (inactive)
